Results published in patent publication US11986480B2, “Heterocyclic compound” (TOHOKU UNIVERSITY, priority 2017, dated 2024).

Tested on: EmGFP-HaloTag
Assay: Test Example 1: HeLa cells stably expressing EmGFP-HaloTag, Western blot GFP/actin (Testing Method A)
Assay type: cell-based
Details: 24 hours, 1 or less = degradation promoted
Description: Test Example 1: Evaluation Method Using Cell Stably Expressing EmGFP-HaloTag (Testing Method A)
HeLa cells stably expressing EmGFP-HaloTag were inoculated to Dulbecco's Modified Eagle Medium (DMEM) and cultured for 24 hours. Then, a test compound (specifically, compounds of Examples 1 to 7, 9 to 11, 13 to 15, 17 to 20, 24 to 27, 29, 32 to 33, 36 to 42, 44 to 46 and 56) was added thereto at the final concentration shown in Table 2, followed by incubation for 24 hours under conditions of 37° C./5% CO2. The cells were washed with PBS three times and treated with a cell lysis solution containing a proteolytic enzyme inhibitor to obtain a cell extract. The cell extract was subjected to SDS-PAGE. After the electrophoresis, GFP and actin were detected by Western blot. The ratio of the GFP/actin value of the drug-treated cells to the GFP/actin value of a control group in drug-untreated cells was regarded as an activity value. A value of 1 or less represents that degradation of EmGFP-HaloTag was promoted.

CC(=O)N[C@@H](CSc1nc2c(=O)[nH]c(N)nc2n1-c1ccccc1)C(=O)NCCOCCOCCOCCOCCOCCCCCCCl [Example 40, N^2-acetyl-S-(2-amino-6-oxo-9-phenyl-6,9-dihydro-1H-purin-8-yl)-N-(21-chloro-3,6,9,12,15-pentaoxahenicos-1-yl)-L-cysteinamide]
Activity value (GFP/actin of drug-treated cells relative to drug-untreated control) (1 uM): 0.7

CC(=O)N[C@@H](CSc1nc2cncnc2n1Cc1ccc(F)cc1)C(=O)NCCOCCOCCOCCOCCOCCCCCCCl [Example 18, N^2-Acetyl-N-(21-chloro-3,6,9,12,15-pentaoxahenicos-1-yl)-S-(9-(4-fluorobenzyl)-9H-purin-8-yl)-L-cysteinamide]
Activity value (GFP/actin of drug-treated cells relative to drug-untreated control) (1 uM): 0.1

CC(=O)N[C@@H](CSc1nc2c(=O)n3cc[nH]c3nc2n1Cc1ccc(F)cc1)C(=O)NCCOCCOCCOCCOCCOCCCCCCCl [Example 44, N^2-Acetyl-N-(21-chloro-3,6,9,12,15-pentaoxahenicos-1-yl)-S-(3-(4-fluorobenzyl)-9-oxo-5,9-dihydro-3H-imidazo[1,2-a]purin-2-yl)-L-cysteinamide]
Activity value (GFP/actin of drug-treated cells relative to drug-untreated control) (1 uM): 0.9

Nc1nc2c(nc(-c3cccc(C(=O)NCCOCCOCCOCCOCCOCCCCCCCl)c3)n2Cc2ccc(F)cc2)c(=O)[nH]1 [Example 4, 3-(2-amino-9-(4-fluorobenzyl)-6-oxo-6,9-dihydro-1H-purin-8-yl)-N-(21-chloro-3,6,9,12,15-pentnoxahenicos-1-yl)benzamide]
Activity value (GFP/actin of drug-treated cells relative to drug-untreated control) (10 uM): 0.8

CC(=O)Nc1nc2c(nc(SC[C@H](NC(C)=O)C(=O)NCCOCCOCCOCCOCCOCCCCCCCl)n2Cc2ccc(F)cc2)c(=O)[nH]1 [Example 27, S-(2-Acetamido-9-(4-fluorobenzyl)-6-oxo-6,9-dihydro-1H-purin-8-yl)-N^2-acetyl-N-(21-chloro-3,6,9,12,15-pentaoxahenicos-1-yl)-L-cysteinamide]
Activity value (GFP/actin of drug-treated cells relative to drug-untreated control) (1 uM): 0.7

CC(=O)N[C@@H](CSc1nc2c(=O)[nH]c(N)nc2n1Cc1ccc(Cl)cc1)C(=O)NCCOCCOCCOCCOCCOCCCCCCCl [Example 1, N^2-Acetyl-S-(2-amino-9-(4-chlorobenzyl)-6-oxo-6,9-dihydro-1H-purin-8-yl)-N-(21-chloro-3,6,9,12,15-pentaoxahenicos-1-yl)-L-cysteinamide]
Activity value (GFP/actin of drug-treated cells relative to drug-untreated control) (10 uM): 0.7

Nc1nc2c(nc(CNCCOCCOCCOCCOCCOCCCCCCCl)n2Cc2ccc(F)cc2)c(=O)[nH]1 [Example 32, 2-Amino-8-(23-chloro-5,8,11,14,17-pentaoxa-2-azatricos-1-yl)-9-(4-fluorobenzyl)-1,9-dihydro-6H-purin-6-one]
Activity value (GFP/actin of drug-treated cells relative to drug-untreated control) (100 uM): 0.7

CC(=O)N[C@@H](CSc1nc2c(=O)[nH]c(N)nc2n1Cc1ccc(C)cc1)C(=O)NCCOCCOCCOCCOCCOCCCCCCCl [Example 25, N^2-acetyl-S-(2-amino-9-(4-methylbenzyl)-6-oxo-6,9-dihydro-1H-purin-8-yl)-N-(21-chloro-3,6,9,12,15-pentaoxahenicos-1-yl)-L-cysteinamide]
Activity value (GFP/actin of drug-treated cells relative to drug-untreated control) (1 uM): 0.9

Nc1nc2c(nc(NCC(=O)NCCOCCOCCOCCOCCOCCCCCCCl)n2Cc2ccc(F)cc2)c(=O)[nH]1 [Example 9, N^2-(2-amino-9-(4-fluorobenzyl)-6-oxo-6,9-dihydro-1H-purin-8-yl)-N-(21-chloro-3,6,9,12,15-pentaoxahenicos-1-yl)glycinamide]
Activity value (GFP/actin of drug-treated cells relative to drug-untreated control) (5 uM): 0.47

CC(=O)N[C@@H](CSc1nc2c(=O)[nH]c(N)nc2n1Cc1ccc(C#N)cc1)C(=O)NCCOCCOCCOCCOCCOCCCCCCCl [Example 36, N^2-acetyl-S-(2-amino-9-(4-cyanobenzyl)-6-oxo-6,9-dihydro-1H-purin-8-yl)-N-(21-chloro-3,6,9,12,15-pentaoxahenicos-1-yl)-L-cysteinamide]
Activity value (GFP/actin of drug-treated cells relative to drug-untreated control) (10 uM): 0.9

CC(=O)N[C@@H](CSc1nc2c(N)nc(N)nc2n1Cc1ccc(F)cc1)C(=O)NCCOCCOCCOCCOCCOCCCCCCCl [Example 45, N^2-Acetyl-N-(21-chloro-3,6,9,12,15-pentaoxahenicos-1-yl)-S-(2,6-diamino-9-(4-fluorobenzyl)-9H-purin-8-yl)-L-cysteinamide]
Activity value (GFP/actin of drug-treated cells relative to drug-untreated control) (10 uM): 0.7

CC(=O)N[C@@H](CSc1nc2c(=O)n(C)c(=O)n(C)c2n1Cc1ccc(F)cc1)C(=O)NCCOCCOCCOCCOCCOCCCCCCCl [Example 13, N^2-Acetyl-N-(21-chloro-3,6,9,12,15-pentaoxahenicos-1-yl)-S-(9-(4-fluorobenzyl)-1,3-dimethyl-2,6-dioxo-2,3,6,9-tetrahydro-1H-purin-8-yl)-L-cysteinamide]
Activity value (GFP/actin of drug-treated cells relative to drug-untreated control) (1 uM): 0.1

CC(=O)N[C@@H](CSc1nc2c(=O)[nH]c(N)nc2n1Cc1ccccc1Cl)C(=O)NCCOCCOCCOCCOCCOCCCCCCCl [Example 24, N^2-acetyl-S-(2-amino-9-(2-chlorobenzyl)-6-oxo-6,9-dihydro-1H-purin-8-yl)-N-(21-chloro-3,6,9,12,15-pentaoxahenicos-1-yl)-L-cysteinamide]
Activity value (GFP/actin of drug-treated cells relative to drug-untreated control) (1 uM): 0.5

Nc1nc2c(nc(-c3ccc(C(=O)NCCOCCOCCOCCOCCOCCCCCCCl)cc3)n2Cc2ccc(F)cc2)c(=O)[nH]1 [Example 3, 4-(2-Amino-9-(4-fluorobenzyl)-6-oxo-6,9-dihydro-1H-purin-8-yl)-N-(21-chloro-3,6,9,12,15-pentaoxahenicos-1-yl)benzamide]
Activity value (GFP/actin of drug-treated cells relative to drug-untreated control) (100 uM): 0.3

CC(=O)N[C@@H](CSc1nc2c(=O)[nH]c(N)nc2n1CC1CCOCC1)C(=O)NCCOCCOCCOCCOCCOCCCCCCCl [Example 29, N^2-acetyl-S-(2-amino-6-oxo-9-(tetrahydro-2H-pyran-4-ylmethyl)-6,9-dihydro-1H-purin-8-yl)-N-(21-chloro-3,6,9,12,15-pentaoxahenicos-1-yl)-L-cysteinamide]
Activity value (GFP/actin of drug-treated cells relative to drug-untreated control) (100 uM): 0.5

Nc1nc2c(nc(-c3cn(CCOCCOCCOCCOCCOCCCCCCCl)nn3)n2Cc2ccc(F)cc2)c(=O)[nH]1 [Example 15, 2-Amino-8-(1-(21-chloro-3,6,9,12,15-pentaoxahenicos-1-yl)-1H-1,2,3-triazol-4-yl)-9-(4-fluorobenzyl)-1,9-dihydro-6H-purin-6-one]
Activity value (GFP/actin of drug-treated cells relative to drug-untreated control) (1 uM): 0.9

Nc1nc2c(nc(-c3cccc(OCCOCCOCCOCCOCCOCCCCCCCl)c3)n2Cc2ccc(F)cc2)c(=O)[nH]1 [Example 10]
Activity value (GFP/actin of drug-treated cells relative to drug-untreated control) (1 uM): 0.3

Nc1nc2c(nc(C(=O)N3CCCCC3C(=O)NCCOCCOCCOCCOCCOCCCCCCCl)n2Cc2ccc(F)cc2)c(=O)[nH]1 (stereo not shown) [Example 46, 1-((2-Amino-9-(4-fluorobenzyl)-6-oxo-6,9-dihydro-1H-purin-8-yl)carbonyl)-N-(21-chloro-3,6,9,12,15-pentaoxahenicos-1-yl)piperidine-2-carboxamide]
Activity value (GFP/actin of drug-treated cells relative to drug-untreated control) (100 uM): 0.2

Nc1nc2c(nc(SCCC(=O)NCCOCCOCCOCCOCCOCCCCCCCl)n2Cc2ccc(F)cc2)c(=O)[nH]1 [Example 2]
Activity value (GFP/actin of drug-treated cells relative to drug-untreated control) (10 uM): 0.9
